Each block holds one compound with its values, some of them ahead of it.
Test system: vGLUT1- bzw. vGLUT2-Transporter
Assay: Glutamate uptake in rat crude synaptic vesicles ([3H]-glutamate uptake)
Format: biochemical, Ratte
Details: for IC50: read-out: VGLUT (Ratte), IC50; for VGLUT (Ratte), Hemmung [%]: test concentration not given
Source text: I. Funktionelle Untersuchung an den vGLUT1- bzw. vGLUT2-Transportern
Die agonistische bzw. antagonistische Wirkung der zu untersuchenden Verbindungen am vGLUT1- bzw. vGLUT2-Transporter der Spezies Ratte kann mit folgendem Assay bestimmt werden.
Glutamat-Uptake in Rattenvesikel ('rat crude synaptic vesicles')
Die Präparation von Vesikeln wurde aus Rattengehirn-Homogenaten (männlichen Ratten, Stamm Wistar SPF, 150-250 g Gewicht) durchgeführt gemäß Roseth et al. (1995) J. Neurochem. 65: 96-103, der sich auf Whittaker et al. (1964) Biochem J. 90, 293-303 und Fykse und Fonnum (1988) J. Neurochem. 50: 1237-1242 bezieht.
Hierzu wurden frisch entnommene Rattengehirne in 0,32 M Saccharose, 10 mM TRIS-maleat, 1 mM EGTA, pH 7,4 (10 ml/g Frischgewicht) mit einem Potter-Homogenisator (Fa. Braun/Melsungen; 5 Kolbenhübe bei 800 Upm) unter Eiskühlung homogenisiert und anschließend für 10 Minuten bei 3.000 g und 4°C zentrifugiert. Der resultierende Überstand wurde bei 20.000 g für 30 Minuten bei 4°C zentrifugiert. Das entstandene Pellet wurde dann im Verhältnis 1:3 mit 10 mM TRIS-maleate, 0,1 mM EGTA, pH 7,4 osmotisch geschockt und die Suspension bei 17000g für 30 min (4°C) zentrifugiert. Die im Überstand verbliebenen Vesikel wurden nun auf einen Dichtegradienten aus 0,6 M Saccharose in 10 mM TRIS-maleat, 1 mM EGTA, pH 7.4 und 0.4 M Saccharose in 10 mM TRIS-maleat, 1 mM EGTA, pH 7.4 geschichtet. Eine Ultrazentrifugation der Gradienten im Ausschwingrotor bei 65000g für 2h (4°C) schloss sich an. Die Vesikel-Fraktion wurde von der 0.4 M Saccharose-Bande isoliert und im Uptake-Versuch eingesetzt.
Die Substratlösung für den Uptake von [^3H]-Glutamat bestand aus ATP (neutralisiert mit Trisma base; 2 mM im Endansatz), Glutamat (0.5 mM im Endansatz) und ^3H-Glutamat (0.5 µCi im Endansatz). In 14 ml-Reagiergefäßen (Sarstedt, Artikel-Nr.: 798438) wurden jeweils 0,3 ml Gesamtvolumina (n=2/Probe) pipettiert in der folgenden Reihenfolge: 1.) 165 µl Inkubationspuffer (110 mM Kaliumtartrat, 10 mM TRIS-maleat, pH 7,4, 4 mM MgCl2), 2.) 10 µl Testsubstanz oder Vehikelkontrolle oder blank, 3.) 100 µl synaptische Vesikel. Es schloss sich eine Vorinkubation von 15 min bei 30°C an (nur blank-Ansätze befanden sich hierbei auf Eis). Danach wurde der Uptake durch Zugabe von 25 µl der oben beschriebenen Substratlösung gestartet. Die Reaktion wurde nach 5 min durch Zugabe von 7,0 ml eiskalter 150 mM KCI gestoppt. Anschließend wurden die Proben mit Hilfe des Brandel Cell Harvesters Typ M-24R über einen Membranfilter der Porengröße 0,8 µm abgesaugt und zweimal mit eiskalter 150 mM KCI nachgewaschen. Die Messung erfolgte am beta-Counter nach 15 h in 10 ml Szintillatorflüssigkeit (Filter Count).
Die Affinität der Verbindungen der allgemeinen Formel (I) für den vGLUT1- bzw. vGLUT2-Transporter wurde wie vorstehend beschrieben bestimmt (Pharmakologische Methoden).

SMILES: O=C(Nc1ccccc1C(=O)O)c1ccc(C(=O)Nc2ccccc2C(=O)O)cc1 [Beispiel 1, 2-(4-(2-Carboxyphenylcarbamoyl)benzamido)benzoesäure]
IC50: 1290 nM
VGLUT (Ratte), Hemmung [%]: 91%

SMILES: O=C(Nc1ccccc1C(=O)O)c1cccc(C(=O)Nc2ccccc2C(=O)O)c1 [Beispiel 2, 2-(3-(2-Carboxyphenylcarbamoyl)benzamido)benzoesäure]
IC50: 3350 nM
VGLUT (Ratte), Hemmung [%]: 78%

IC50: 2260 nM
SMILES: O=C(Nc1ccccc1C(=O)O)c1ccc(Oc2ccc(C(=O)Nc3ccccc3C(=O)O)cc2)cc1 [Beispiel 3, 2-(4-(4-(2-Carboxyphenylcarbamoyl)phenoxy)benzamido)-benzoesäure]
VGLUT (Ratte), Hemmung [%]: 88%

SMILES: O=C(Nc1cc([N+](=O)[O-])ccc1C(=O)O)c1cccc(C(=O)Nc2cc([N+](=O)[O-])ccc2C(=O)O)c1 [Beispiel 4, 2-(3-(2-Carboxy-5-nitrophenylcarbamoyl)benzamido)-4-nitrobenzoesäure]
IC50: 320 nM
VGLUT (Ratte), Hemmung [%]: 92%

SMILES: O=C(Nc1cc([N+](=O)[O-])ccc1C(=O)O)c1ccc(C(=O)Nc2cc([N+](=O)[O-])ccc2C(=O)O)cc1 [Beispiel 5, 2-(4-(2-Carboxy-5-nitrophenylcarbamoyl)benzamido)-4-nitrobenzoesäure]
IC50: 860 nM
VGLUT (Ratte), Hemmung [%]: 88%
